Where a name gives a salt, the structure may show the parent alone.
Key:
B16 melanoma line = assay: Topical treatment of B16 melanoma in mice; conditions: microemulsion 10 mg/ml, 20 microlitre, 2 times per day, after 4 days
[1] = tested on: Carrageenan-induced inflammation in the rear right footpad; assay: Carrageenan-induced footpad inflammation, foot thickness; format: in vivo, mice; conditions: for reduction of inflammation (foot thickness): microemulsion 10 mg/ml VB12 analog, 20 microL on shaved belly, 14 days; for reduction of inflammation (foot thickness) vs untreated animals: microemulsion 10 mg/ml, topical on shaved belly, FIG. 8
[2] = microemulsions compared to a hydrogel; cited from earlier work
[3] = Distribution of 125I-labeled proteins after transdermal application in a microemulsion; conditions: conscious Balb/C mice; for counts in the organs of the intestine: presumed due to grooming
[4] = Weight loss microemulsion in overweight Swiss mice; format: in vivo; conditions: topical microemulsion 1 mg/ml daily
Protocol: A microemulsion for topical weight loss was prepared according to the methods described in Examples 1 and 7, and included insulin, or insulin-like growth factor 1 (IGF1) or GHRP-6 at a final concentration of 1 mg/ml. A standardised volume of microemulsion was applied daily (TD) to an area of shaved skin on the belly of conscious Swiss strain mice. A standardised volume of each of insulin, or insulin-like growth factor 1 (IGF1) or GHRP-6 at a final concentration of 1 mg/ml in saline was injected sub cutaneously (SC) into the belly region of Swiss strain mice. Animal weights were measured 3 times per week. Following 2 weeks of treatment the mice were euthanased and their tissues removed and weighed. The weight of the animals with time is plotted in FIG. 11. It can be seen that there was a decrease in body weight of animals treated with the topical insulin of up to 15% within 2 weeks (FIG. 11).

For `O=c1[nH]cc(F)c(=O)[nH]1` [5-fluorouracil], the “growth rate of the tumour” value (B16 melanoma line) was “reduction in growth rate of the tumour”.

For `N.N.O=C([O-])C1(C(=O)[O-])CCC1.[Pt+2]` [Carboplatin], the “body weight of the animals” value (B16 melanoma line) was “no reduction in body weight” and the “growth rate of the tumour” value (B16 melanoma line) was “reduction in growth rate of the tumour”.

With `N.N.[Cl][Pt][Cl]` [Cis-Platinum] the “body weight of the animals” value (B16 melanoma line) was “no reduction in body weight” and the “growth rate of the tumour” value (B16 melanoma line) was “reduction in growth rate of the tumour”.

With `C/C1=C2/[N-][C@H]([C@H](CC(N)=O)[C@@]2(C)CCC(=O)NC[C@@H](C)OP(=O)([O-])O[C@H]2[C@@H](O)[C@@H](n3cnc4cc(C)c(C)cc43)O[C@@H]2CO)[C@]2(C)N=C(/C(C)=C3N=C(/C=C4N=C1[C@@H](CCC(N)=O)C\4(C)C)[C@@H](CCC(N)=O)[C@]\3(C)CC(N)=O)[C@@H](CCC(N)=O)[C@]2(C)CC(N)=O.[CH2-][C@H]1O[C@@H](n2cnc3c(N)ncnc32)[C@H](O)[C@@H]1O.[Co]` [adenosyl-cobalamin] the “comparison of reduction in inflammation among the compositions” value ([1]; C57/BI6 mice, VB12 analog microemulsions, FIG. 7) was “greatest reduction in inflammation”, the “reduction of inflammation (foot thickness)” value ([1]; C57/BI6 mice, FIG. 7) was “active in reducing inflammation” and the “reduction of inflammation (foot thickness) vs untreated animals” value (shortened to “reduction … vs untreated animals”) ([1]; C57/BI6 mice) was “active in reducing inflammation”. The “level of inflammation in the rear right foot-pad vs untreated animals” value ([1]; C57/BI6 mice, microemulsions of Example 13, topical on shaved belly, FIG. 6) was “significantly lower level of inflammation”.

In the case of `C/C1=C2/[N-][C@H]([C@H](CC(N)=O)[C@@]2(C)CCC(=O)NC[C@H](C)OP(=O)([O-])O[C@H]2[C@@H](O)[C@@H](n3cnc4cc(C)c(C)cc43)O[C@@H]2CO)[C@]2(C)N=C(/C(C)=C3N=C(/C=C4N=C1[C@@H](CCC(N)=O)C\4(C)C)[C@@H](CCC(N)=O)[C@]\3(C)CC(N)=O)[C@@H](CCC(N)=O)[C@]2(C)CC(N)=O.[Co+2]` [cobalamin], the “reduction of inflammation (foot thickness)” value ([1]; C57/BI6 mice, FIG. 7) is reported as “active in reducing inflammation”.

With `C/C1=C2/[N-][C@H]([C@H](CC(N)=O)[C@@]2(C)CCC(=O)NC[C@@H](C)OP(=O)([O-])O[C@H]2[C@@H](O)[C@@H](n3cnc4cc(C)c(C)cc43)O[C@@H]2CO)[C@]2(C)N=C(/C(C)=C3N=C(/C=C4N=C1[C@@H](CCC(N)=O)C\4(C)C)[C@@H](CCC(N)=O)[C@]\3(C)CC(N)=O)[C@@H](CCC(N)=O)[C@]2(C)CC(N)=O.[Co+3].[OH-]` [hydroxycobalamin, reference compound] the “reduction of inflammation (foot thickness)” value ([1]; C57/BI6 mice, FIG. 7) was “active in reducing inflammation”.

For `CCCNC(C)C(=O)Nc1ccccc1C` (stereo not shown) [prilocaine hydrochloride], the “increase of transdermal flux” value [2] is listed as roughly 10 times.

In the case of “EGF: 125I-labeled Epidermal Growth Factor in a microemulsion”, the “appearance of 125I in skin, muscle and shaved area” value ([3]; after 3 hours, FIG. 3) is reported as “rapid appearance of ^125I in skin, muscle and the shaved area of the skin” and the “counts in the organs of the intestine” value ([3]; after 3 hours) is reported as “appearance of counts in the stomach, SI-1, SI-2, caecum and faeces”.

With H-Met-Gln-Glu-Asn-Ser-OH [MLIF-A] the “reduction … vs untreated animals” value ([1]; C57/BI6 mice) was “active in reducing inflammation”.

For H-Met-Gln-Ile-Asn-Ser-OH [MLIF-B], the “reduction … vs untreated animals” value ([1]; C57/BI6 mice) was “active in reducing inflammation”.

For H-Met-Gln-Met-Asn-Ser-OH [MLIF-C], the “reduction … vs untreated animals” value ([1]; C57/BI6 mice) was “active in reducing inflammation”.

For adalimumab, the “level of inflammation in the rear right foot-pad vs untreated animals” value ([1]; microemulsion, TNFRII-Fc 5 mg/ml or adalimumab 4 mg/ml, topical, FIG. 9) was “significantly lower levels of inflammation”.

With cyanocobalamin [reference compound] the “reduction of inflammation (foot thickness)” value ([1]; C57/BI6 mice, FIG. 7) was “active in reducing inflammation”.

For “insulin: insulin in a microemulsion (125I-labeled in Example 5; 1 mg/ml in Example 20)”, the “appearance of 125I in skin, muscle and shaved area” value ([3]; overnight, FIG. 4) was “rapid appearance of ^125I in skin, muscle and the shaved area of the skin”, the “counts in the organs of the intestine” value ([3]; overnight) was “appearance of counts in the stomach, SI-1, SI-2, caecum and faeces” and the “change of organ weights compared with other groups” value ([4]; 2 weeks, FIG. 10) was “greatest change”. The muscle mass ([4]; 2 weeks, FIG. 10) was “increased”, the weight of skin ([4]; 2 weeks, FIG. 10) was “significantly reduced” and the “decrease in body weight” value ([4]; within 2 weeks, FIG. 11) was “up to 15%”.

Source: patent US20070243132A1, “Transdermal delivery of pharmaceutical agents” (priority 2005, published 2007)
